Measurements reported in patent publication US20250099400A1, “TERPENES FOR USE IN MODULATION OF A PHY[…]” (BUZZELET DEVELOPMENT AND TECHNOLOGIES LTD., priority 2022, published 2025).
Converted amounts (≈) assume the structure as drawn.

Molecular target: T1, CB1 receptor (Homo sapiens, UniProt P21554)
T1 construct: expressed in transfected cells; host or cells: Xenopus laevis oocytes injected with in vitro transcribed cRNA
Test: CB1 receptor-activated GIRK currents in Xenopus oocytes (two-electrode voltage clamp)
Type: cell-based
Conditions: THC concentrations each supplemented with terpene at a weight/weight ratio of 1/10, compared with THC alone
Procedure: cDNA plasmids of the two subunits of the G protein-activated inwardly rectifying K^+ channel (GIRK) (GIRK1 and GIRK2), the CB1 receptor, the CB2 receptor, and the α subunit of the G-protein (Gαi3) were linearized with the appropriate restriction enzymes. The linearized plasmids were transcribed in vitro using a standard procedure.
Oocytes were isolated from female adult X. laevis anesthetized (with 1 g/L MS-222) and incubated in NDE96 solution composed of ND96 (in mM: 96 NaCl, 2 KCl, 1 CaCl2, 1 MgCl2, 5 Hepes, with pH adjusted to 7.5 with NaOH) with the addition of 2.5 mM Na^+ pyruvate, 100 units/ml penicillin, and 100 μg/ml streptomycin (16). The isolated oocytes were injected with the relevant cRNAs: cRNAs of CB1 receptor and CB2 receptor (2 ng) and GIRK1 and GIRK2 (200 pg each) were injected. In addition, cRNA of Gαi3 (1000 pg) was injected to decrease the basal GIRK current (IK) and to improve the relative activation by the agonist.
Currents were measured 3-5 days after cRNA injection and were recorded using the standard two-electrode voltage clamp technique (Axoclamp 2B amplifier, Axon Instruments, Foster City, CA).
Each oocyte was placed in a recording bath containing ND96 solution and was impaled with two electrodes pulled from 1.5-mm Clark capillaries (Warner instruments, Hamden, CT). Both electrodes were filled with a 3M KCI solution and the electrode resistance was between 1 and 5 MΩ. The CB1 receptor-mediated GIRK and the CB2 receptor-mediated GIRK currents were measured in 24 mM K^+ solution (in mM: 72 NaCl, 24 KCl, 1 CaCl2, 1 MgCl2, 5 Hepes, with pH adjusted to 7.5 with KOH). Ba^+2 (1 mM) was used to block the currents in order to verify that the measured currents were indeed mediated by GIRK channels.
The dose response curves were fitted by equation 1:
Y=Bottom+X*(Top-Bottom)/(EC50+X), (1)
The responses evoked in the same oocyte by either THC and\or terpenes measurements, were normalized to this reference value.
The Xenopus oocytes functional expression system was used to test the possibility that the presence of various terpenes affects the activation of the CB1 receptor, as depicted schematically in FIG. 1A. To this end, Xenopus oocytes were injected with cRNAs of proteins involved in the pathway leading to activation of K^+ currents by CB1 receptor via βγ subunits of the G-proteins: The CB1 receptor, the two subunits of the GIRK channel (GIRK1 and GIRK2), and the Gαi3 subunit.
First, the dependence of THC-induced K^+ current (ITHC) on THC concentration (dose-response, DR) was measured. The oocyte was voltage-clamped to −80 mV in a low K^+ (2 mM K^+) solution, ND96. Basal GIRK current (IK) was developed upon replacement of the ND96 by the 24 mM K^+solution. This current represents the basal activation of GIRK channel by endogenous By subunits present in the oocytes. Then, five different concentrations of THC were applied sequentially in ascending order giving rise to ITHC. This current was terminated upon washout of THC. Employing this basic experimental protocol, a full DR curve was constructed.
In order to compare between oocytes, ITHC at any particular THC concentration was normalized to ITHC obtained at a 10 μM THC, defined as the reference response, at this same oocyte.

T1 sequence (P21554 whole entry): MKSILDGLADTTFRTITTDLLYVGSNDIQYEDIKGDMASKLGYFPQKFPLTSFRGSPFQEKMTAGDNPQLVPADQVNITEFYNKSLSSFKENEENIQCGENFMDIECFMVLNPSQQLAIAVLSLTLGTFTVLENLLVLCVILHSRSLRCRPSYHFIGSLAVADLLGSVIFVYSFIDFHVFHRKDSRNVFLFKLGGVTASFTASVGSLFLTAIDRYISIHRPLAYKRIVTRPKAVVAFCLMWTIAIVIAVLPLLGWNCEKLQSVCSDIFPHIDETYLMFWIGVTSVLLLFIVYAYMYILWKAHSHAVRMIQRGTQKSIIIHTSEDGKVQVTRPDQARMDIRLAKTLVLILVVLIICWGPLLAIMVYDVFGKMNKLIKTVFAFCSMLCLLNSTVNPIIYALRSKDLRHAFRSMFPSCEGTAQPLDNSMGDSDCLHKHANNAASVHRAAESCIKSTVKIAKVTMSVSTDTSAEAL

Compound	effect of terpene addition on the potency of THC in CB1 receptor activation
C=CC(C)(O)CCC=C(C)C (racemic) [linalool]	significantly enhances the potency of THC
C=C1CCC2CC1C2(C)C (stereo not drawn) [beta pinene, β-pinene]	significantly enhances the potency of THC
CC1(C)C2CCC1(C)C(O)C2 (stereo not drawn) [borneol]	significantly enhances the potency of THC
CC(C)=CCC/C(C)=C/CO [geraniol]	significantly enhances the potency of THC
C=C(C)[C@H]1CC=C(C)CC1 [limonene, limonene-D]	significantly enhances the potency of THC
C=CC(C)=CCC=C(C)C [ocimene]	significantly enhances the potency of THC
C=C1CCC2(C(C)C)CC12 (stereo not drawn) [sabinene]	significantly enhances the potency of THC

System: not listed separately
Test: Solubility in the test solutions
Conditions: 24 mM K+ solution, saline or isotonic, kinetic from dmso stock

Compound	solubility [µM]
CCCCCc1cc(O)c2c(c1)OC(C)(C)[C@@H]1CCC(C)=C[C@@H]21 [THC, tetrahydrocannabinol, reference compound]	10 (≈ 3.14 µg/mL)

Same assay, conditions: CB1 dose-response experiment; excluded from analysis

Compound	solubility relative to the tested concentration range
CC(C)=CCC[C@](C)(O)C1CC=C(C)CC1 (stereo partly drawn) [bisabolol]	below the tested concentration range
C/C1=C\CC/C(C)=C/CC(C)(C)/C=C/C1 [humulene]	below the tested concentration range
C=CC(C)(O)CCC=C(C)CCC=C(C)C (stereo not drawn) [nerolidol]	below the tested concentration range
C=C1CC/C=C(\C)CC[C@@H]2[C@@H]1CC2(C)C [β-caryophyllene]	below the tested concentration range
